Legend:
[1] = tested on: epidermal stem cells; experiment: Clonogenicity test on keratinocyte colonies derived from epidermal stem cells after oxidative stress; format: cell-based, human; conditions: 1 μg/ml for 24 h, then hydrogen peroxide 15 minutes, 7 days of culture; versus stressed controls without treatment
Text: In order to study these epidermal stem cells in the basal cell layer of the epidermis, the test carried out, known as clonogenecity test, is based on the ability that the stem cells have of adhering, in vitro, to a culture support and of dividing so as to generate a large population of daughter cells grouped together in the form of colonies (Barrandon Y., Green H., Three clonal types of keratinocyte with different capacities for multiplication, […], 2302-2306 (1987), and Barrandon Y., Biologie des cellules souches épidermiques [Epidermal Stem Cell Biology], Ann. Dermatol. Venereol. Suppl. 2: 285-286, (1998)).
Analysis of the number and of the size of the colonies after culture makes it possible to characterize the epidermal stem cells.
The first step of isolating these cells consists in preparing a suspension of epidermal cells (Germain L et al., Improvement of human keratinocyte isolation and culture using thermolysin, Burns 19, 99-104 (1993)).
These cells are subsequently seeded onto feeder cells (3T3 fibroblasts), the mitotic activity of which is blocked with mitomycin. […]
After 7 days of culture, the cell colonies formed from each initial keratinocyte are coloured and counted by image analysis according to their size so as to evaluate the amount of stem cells of the initial culture. […]

[2] = tested on: normal human keratinocytes (NHKs); experiment: Apoptosis of normal human keratinocytes after H2O2 oxidative stress (JC-1/TOTO-3 cytometry); format: cell-based; conditions: for % NHKs undergoing apoptosis: pretreated 24 h at 10 μg/ml, then 1 mM H2O2 for 3 h, nontreated H2O2 control 54.82, nontreated control 5.48
Protocol: The cells undergoing apoptosis (programmed cell death) are examined on normal human keratinocytes (NHKs) in culture.
The cells are pretreated or not pretreated (controls) for 24 h with the vitamin E derivatives in solution at 10 μg/ml.
The cells are subsequently subjected to oxidative stress (1 mM H2O2 for 3 h).
The proportion of cells undergoing apoptosis is determined by cytometry using the fluorescent probes JC-1 (measurement of mitochondrial transmembrane potential) and TOTO-3 (measurement of plasma membrane permeability).
The apoptotic cells are JC-1-negative (corresponding to a drop in the mitochondrial transmembrane potential) and TOTO-3-negative (corresponding to an absence of alteration of the plasma membrane).
This method has been published (Zullani et al. Cytometry part A, 2003, 54A: 100-108).

Molecule | number of large colonies (>4 mm^2) compared with the controls [1] | % NHKs undergoing apoptosis [2] [%] | protective effect against oxidative stress for the keratinocytes (in words) ([2]; 10 μg/ml 24 h, 1 mM H2O2 3 h, compared with control, vitamin E and the other derivatives)
Cc1c(C)c2c(c(C)c1OP(=O)([O-])[O-])CCC(C)(CCCC(C)CCCC(C)CCCC(C)C)O2.[Na+].[Na+] (stereo not drawn) [sodium alpha-tocopheryl phosphate] | +104% | – | –
Cc1c(C)c2c(c(C)c1OC(=O)c1cc(O)ccc1O)CCC(C)(CCCC(C)CCCC(C)CCCC(C)C)O2 (stereo not drawn) [tocopheryl gentisate] | – | 60.67 | –
tocotrienol | – | 42.85 | –
Cc1c(C)c2c(c(C)c1O)CC[C@@](C)(CCC[C@H](C)CCC[C@H](C)CCCC(C)C)O2 [alpha-tocopherol] | – | 58.82 | –
alpha-tocopheryl phosphate | – | 32.79 | significantly greater than that observed for the control, and also than that observed for vitamin E or the other derivatives

Reference: patent publication US20140072617A1, “METHOD FOR PREVENTING OR SLOWING DOWN THE APPEARANCE OF THE EFFECTS OF SKIN AGEING USING A TOCOPHERYL PHOSPHATE IN LIPOSOMES” (LVMH RECHERCHE, priority 2007, published 2014)
